What all share (type): cell-based
The test system of series [1] is human Factor XI mRNA. The series is described as follows: Dose-dependent inhibition in HepG2 cells, electroporation (Example 4). To be noted: 16 hours. The procedure: (§1) The gapmers were also transfected via electroporation and their dose dependent inhibition of human Factor XI mRNA was measured. Cells were plated at a density of 20,000 cells per well and transfected via electroporation with 0.7 μM, 2.2 μM, 6.7 μM, and 20 μM concentrations of antisense oligonucleotide, as specified in Table 10. After a treatment period of approximately 16 hours, RNA was isolated from the cells and Factor XI mRNA levels were measured by quantitative real-time PCR. Human Factor XI primer probe set RTS 2966 was used to measure mRNA levels. Factor XI mRNA levels were adjusted according to total RNA content, as measured by RIBOGREEN®. Results are presented as percent inhibition of Factor XI, relative to untreated control cells.

Series [2] has as its system human Factor XI mRNA. The series is described as follows: Dose-dependent inhibition in HepG2 cells, lipofectin (Example 4). Conditions: 16 hours. The protocol: as §1, with “Cells” for “The gapmers were also transfected via electroporation and their dose dependent inhibition of human Factor XI mRNA was measured. Cells”, “10,000” for “20,000”, “using lipofectin reagent” for “via electroporation”, “9.375 nM, 18.75 nM, 37.5 nM” for “0.7 μM, 2.2 μM, 6.7 μM,”, “75 nM” for “20 μM”, “9.” for “10.”

Series [3] relates to human Factor XI mRNA. The series is described as follows: Antisense inhibition in HepG2 cells by microwalk gapmers, 75 nM, lipofectin (Example 3). To be noted: HepG2 cells, 75 nM. Summed up:
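HepG2 cells (10,000 per well) were transfected with 75 nM gapmer using lipofectin and treated for about 24 h. Factor XI mRNA was quantified by real-time PCR, normalized to RiboGreen total RNA and expressed as percent inhibition versus untreated controls.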

[4] abbreviates: oligonucleotides targeted to nucleobases 1018 to 1042 of SEQ ID NO: 1.
Where [5] appears, read: oligonucleotides targeted to nucleobases 1275 to 1318 of SEQ ID NO: 1.

In the oligonucleotide strings, read from the 5' end, every base follows the letter of its sugar. An asterisk marks phosphorothioate; unmarked linkages are phosphodiester. Other units and linkages are bracketed, terminal groups are in braces. A string of capitals states the bases alone. e = 2'-O-(2-methoxyethyl) (MOE); [5mC] = 5-methylcytosine; d = 2'-deoxy (DNA)

For the substance “413474 (antisense eA*eG*e[5mC]*eA*eA*d[5mC]*d[5mC]*dG*dG*dG*dA*dT*dG*dA*dT*eG*eA*eG*eT*eG) [compound 413474]”, the “percent inhibition of Factor XI mRNA, relative to untreated control cells” value came out at 0% in series [1] (0.7 μM); 5% in series [1] (2.2 μM); 52% in series [1] (6.7 μM); 81% in series [1] (20 μM); 29% in series [2] (9.375 nM); 44% in series [2] (18.75 nM). For the same substance, the figures for the “percent inhibition of Factor XI mRNA, relative to untreated control cells” value in series [2] (37.5 nM) and in series [2] (75 nM) were 57% and 67%, respectively. In addition, the “% inhibition of human Factor XI mRNA levels” value (“% inhibition” for short) in series [3] (setting [4]) was 93%.
Consider “416842 (antisense eT*eG*eA*eG*eA*dT*dT*d[5mC]*dT*dT*dT*dG*dG*dG*d[5mC]*e[5mC]*eA*eT*eT*e[5mC]) [compound 416842]”, for which the “percent inhibition of Factor XI mRNA, relative to untreated control cells” value in series [1] (0.7 μM) is on record as 0%; in series [1] (2.2 μM) it was 10%; in series [1] (6.7 μM), 66%; in series [1] (20 μM) it was 92%; in series [2] (9.375 nM) it was 18%; in series [2] (18.75 nM) it was 33%. Besides, the “percent inhibition of Factor XI mRNA, relative to untreated control cells” value in series [2] (37.5 nM) stood at 62%; in series [2] (75 nM), 71%. Further, the “% inhibition” value in series [3] (oligonucleotides targeted to nucleobases 1062 to 1091 of SEQ ID NO: 1) is given as 94%.
For the substance “416908 (antisense eG*e[5mC]*eA*dA*d[5mC]*d[5mC]*dG*dG*dG*dA*dT*dG*dA*dT*dG*dA*dG*eT*eG*e[5mC]) [compound 416908]”, the “percent inhibition of Factor XI mRNA, relative to untreated control cells” value in series [1] (0.7 μM) was 7%; in series [1] (2.2 μM), 58%; in series [1] (6.7 μM), 74%; in series [1] (20 μM), 89%; in series [2] (9.375 nM), 36%; in series [2] (18.75 nM), 57%. The figures for the “percent inhibition of Factor XI mRNA, relative to untreated control cells” value in series [2] (37.5 nM) and in series [2] (75 nM) were 67% and 76%, respectively. Also, the “% inhibition” value in series [3] (setting [4]) was 98%.
As to “416922 (antisense eG*e[5mC]*eA*d[5mC]*dA*dG*dT*dT*dT*d[5mC]*dT*dG*dG*d[5mC]*dA*dG*dG*e[5mC]*e[5mC]*eT) [compound 416922]”, the “percent inhibition of Factor XI mRNA, relative to untreated control cells” value in series [1] (0.7 μM) is listed as 35%; in series [1] (2.2 μM) it was 51%; in series [1] (6.7 μM) it was 77%; in series [1] (20 μM) it was 91%; in series [2] (9.375 nM), 14%; in series [2] (18.75 nM), 25%. Besides, the entries for the “percent inhibition of Factor XI mRNA, relative to untreated control cells” value in series [2] (37.5 nM) and in series [2] (75 nM) were 49% and 75%, respectively. For the same substance, the “% inhibition” value in series [3] (setting [5]) amounted to 94%.
Consider “416923 (antisense eT*eG*e[5mC]*dA*d[5mC]*dA*dG*dT*dT*dT*d[5mC]*dT*dG*dG*d[5mC]*dA*dG*eG*e[5mC]*e[5mC]) [compound 416923]”, for which the “percent inhibition of Factor XI mRNA, relative to untreated control cells” value turned out to be 15% in series [1] (0.7 μM); 30% in series [1] (2.2 μM); 60% in series [1] (6.7 μM); 90% in series [1] (20 μM); 36% in series [2] (9.375 nM); 47% in series [2] (18.75 nM). Besides, the results for the “percent inhibition of Factor XI mRNA, relative to untreated control cells” value in series [2] (37.5 nM) and in series [2] (75 nM) were 60% and 67%, respectively. In addition, the “% inhibition” value in series [3] (setting [5]) was 96%.
“416924 (antisense eG*eT*eG*d[5mC]*dA*d[5mC]*dA*dG*dT*dT*dT*d[5mC]*dT*dG*dG*d[5mC]*dA*eG*eG*e[5mC]) [compound 416924]”: the “percent inhibition of Factor XI mRNA, relative to untreated control cells” value is on record as 22% in series [1] (0.7 μM); 40% in series [1] (2.2 μM); 63% in series [1] (6.7 μM); 70% in series [1] (20 μM); 25% in series [2] (9.375 nM); 38% in series [2] (18.75 nM). Also, the “percent inhibition of Factor XI mRNA, relative to untreated control cells” value in series [2] (37.5 nM) is on record as 56%; in series [2] (75 nM), 59%. For the same substance, the “% inhibition” value in series [3] (setting [5]) is given as 97%.
Turning to “416926 (antisense eT*eG*eG*dT*dG*d[5mC]*dA*d[5mC]*dA*dG*dT*dT*dT*d[5mC]*dT*dG*dG*e[5mC]*eA*eG) [compound 416926]”, the “percent inhibition of Factor XI mRNA, relative to untreated control cells” value amounted to 47% in series [1] (0.7 μM); 71% in series [1] (2.2 μM); 91% in series [1] (6.7 μM); 94% in series [1] (20 μM); 31% in series [2] (9.375 nM); 43% in series [2] (18.75 nM). Further, the “percent inhibition of Factor XI mRNA, relative to untreated control cells” value in series [2] (37.5 nM) is on record as 63%; in series [2] (75 nM), 82%. Further, the “% inhibition” value in series [3] (setting [5]) is 93%.
Turning to “417009 (antisense e[5mC]*eG*dG*d[5mC]*dA*dT*dT*dG*dG*dT*dG*d[5mC]*dA*d[5mC]*dA*eG*eT*eT*eT*e[5mC]) [compound 417009]”, in series [3] (setting [5]), the “% inhibition” value is 85%.
Same read-out and setting: for “417010 (antisense eA*e[5mC]*dG*dG*d[5mC]*dA*dT*dT*dG*dG*dT*dG*d[5mC]*dA*d[5mC]*eA*eG*eT*eT*eT) [compound 417010]” the value was 81%; for “417011 (antisense eG*eA*d[5mC]*dG*dG*d[5mC]*dA*dT*dT*dG*dG*dT*dG*d[5mC]*dA*e[5mC]*eA*eG*eT*eT) [compound 417011]”, 86%; for “417012 (antisense eG*eG*dA*d[5mC]*dG*dG*d[5mC]*dA*dT*dT*dG*dG*dT*dG*d[5mC]*eA*e[5mC]*eA*eG*eT) [compound 417012]”, 72%.
In the case of “417013 (antisense e[5mC]*eG*dG*dA*d[5mC]*dG*dG*d[5mC]*dA*dT*dT*dG*dG*dT*dG*e[5mC]*eA*e[5mC]*eA*eG) [compound 417013]”, the “% inhibition” value in series [3] (setting [5]) is listed as 86%.
The same measure, in the same setting: for “417014 (antisense eG*e[5mC]*dG*dG*dA*d[5mC]*dG*dG*d[5mC]*dA*dT*dT*dG*dG*dT*eG*e[5mC]*eA*e[5mC]*eA) [compound 417014]” the value was 87%; for “417015 (antisense eA*eG*d[5mC]*dG*dG*dA*d[5mC]*dG*dG*d[5mC]*dA*dT*dT*dG*dG*eT*eG*e[5mC]*eA*e[5mC]) [compound 417015]”, 87%; for “417016 (antisense e[5mC]*eA*dG*d[5mC]*dG*dG*dA*d[5mC]*dG*dG*d[5mC]*dA*dT*dT*dG*eG*eT*eG*e[5mC]*eA) [compound 417016]”, 85%.
Consider “417017 (antisense eG*e[5mC]*dA*dG*d[5mC]*dG*dG*dA*d[5mC]*dG*dG*d[5mC]*dA*dT*dT*eG*eG*eT*eG*e[5mC]) [compound 417017]”, for which the “% inhibition” value in series [3] (setting [5]) came out at 82%.
Regarding “417018 (antisense eG*eG*d[5mC]*dA*dG*d[5mC]*dG*dG*dA*d[5mC]*dG*dG*d[5mC]*dA*dT*eT*eG*eG*eT*eG) [compound 417018]”, in series [3] (setting [5]), the “% inhibition” value is recorded as 82%.
On the same count and under the same terms, for “417019 (antisense eT*eG*dG*d[5mC]*dA*dG*d[5mC]*dG*dG*dA*d[5mC]*dG*dG*d[5mC]*dA*eT*eT*eG*eG*eT) [compound 417019]” the value was 84%; for “417020 (antisense e[5mC]*eT*dG*dG*d[5mC]*dA*dG*d[5mC]*dG*dG*dA*d[5mC]*dG*dG*d[5mC]*eA*eT*eT*eG*eG) [compound 417020]”, 84%.
“417021 (antisense eA*e[5mC]*dT*dG*dG*d[5mC]*dA*dG*d[5mC]*dG*dG*dA*d[5mC]*dG*dG*e[5mC]*eA*eT*eT*eG) [compound 417021]”: the “% inhibition” value in series [3] (setting [5]) amounted to 74%.

The values above are taken from patent US20120083522A1, “MODULATION OF INFLAMMATORY RESPONSES BY FACTOR XI” (Isis Pharmaceuitcals, inc., priority 2009, published 2012).
